Data on 1 sequence can be found in patent US7645740B2, “Peptide sequence found in Laminin 5 for treating skin impairments” (Laboratoires d'Anjou Centre National de la Recherche …, priority 2004, dated 2010).

For one assay, the system named is NHK-young. Description: Cell proliferation test (XTT), NHK-young. The conditions noted are these: peptide 0.05% and 0.1%, 5th hour. Format: cell-based, human. The procedure: NHK-10 years and NHK-71 years were seeded in 96-well plates at a rate of 10,000 cells per well. After 24 hours, the culture medium was removed and replaced with serum-free medium containing the peptide quantities given in the graphs and reagent XTT. The plates were then placed in the incubator at 37° C. and absorbance readings were taken at 1 h, 2 h, 3 h, 4 h and 5 h. Peptide-free controls were carried out on the same plate.
The effect of the peptide on cell proliferation was analysed with the aid of a calorimetric test (Cell Proliferation Kit XTT, Roche Diagnostics, Meylan, France) on the cells use for the cell adhesion test, i.e. HT1080, A431, HBL100 cells and normal human keratinocytes from young and elderly individuals.
The chemical reaction used in the test is based on the production of NADPH by living cells, leading to the reduction of yellow tetrazolium XTT salts to orange formazan salts. Absorbance was measured at 490 nm using an ELISA plate reader. Cells were seeded in 96-well plates at a rate of 10,000 cells per well (6 wells/condition) in KBM-2 culture medium. After 24 hours in culture at 37° C. with 5% CO2, the culture medium was removed and replaced with serum-free medium containing the peptide quantities given in the graphs and the test reagent. The plates were then placed in the incubator at 37° C. and absorbance readings were taken at 1 h, 2 h, 3 h, 4 h and 5 h. […]
(Tetrazolium assays rely on reduction of a dye to a coloured formazan, in cell work by metabolically active cells.)

Assay [1] has as its system HT1080 cells (human fibrosarcoma). Description: Cell adhesion test to immobilized peptides, HT1080. Format: cell-based. The procedure: Dose-dependent cell adhesion of cell line HT1080 to various peptides 1, 2 and 3. The peptides were immobilized in 96-well plates at the concentrations given on the abscissa. 8×10^4 cells were deposited in each well and plates were incubated at 37° C. for 1 hour. After washing, attached cells were fixed and cell adhesion was measured as described in the methodology section.
Dose-dependent cell adhesion of HT1080 cells to various peptide TALRIRATYGEY (SEQ ID NO. 1). The peptides were immobilized in 96-well plates in the quantities given on the abscissa. 8×10^4 cells and 15×10^4 cells were deposited in each well and plates were incubated at 37° C. for 1 hour. After washing, attached cells were fixed and cell adhesion was measured as described in the methodology section. Cells were observed by phase contrast microscopy then photographed. Bar =50 μm
Peptides 1, 2 and 3 were used for the cell adhesion experiments. A range of 7 decreasing concentrations (100 micrograms/ml, 50 micrograms/ml, 25 micrograms/ml, 12.5 micrograms/ml, 6.25 micrograms/ml, 3.125 micrograms/ml and 1.562 micrograms/ml) was made up by successive dilution in PBS (Phosphate Buffer Saline, KH2PO4 1.54 mM; Na2HPO4 1.42 mM; NaCl-131 mM) using a starting solution at a concentration of 1 mg/ml. These solutions were immediately distributed onto a 96-well culture plate (Greinher, Dutscher, Brumath, France) at a rate of 100 μl per well. Plates were then placed at +4° C. for 16 to 18 hours. The solutions were then removed by turning the plates and each well was saturated with a 1% PBS-BSA solution (bovine serum albumin). Three additional wells without the substrate underwent the same treatment and were used as blanks.
Epithelial cells were detached from the culture dishes using a trypsin/EDAT solution (0.05-0.02%) then suspended in DMEM medium without additives for the cell lines and in KBM-2 without additive for human keratinocytes. The number of seeded cells per well is given in the graphs (50,000 to 100,000 cells per well).
After cell seeding, the multi-well plates were placed in an incubator at 37° C. under 5% CO2. After incubation for 30 to 60 minutes, cells were observed under a phase contrast microscope in order to verify that the test was conducted correctly. The adhesion medium was then removed and each well was washed in a sterile PBS solution to remove non-adhering cells. The remaining cells, attached to the substrate, were then fixed using a solution of 1% glutaraldehyde in PBS for 15 minutes. The glutaraldehyde solution as removed and the cells were stained with a crystal violet solution diluted to 1% in distilled water for 30 minutes.
After rinsing in water several times, cells were permeabilized by means of a 0.02% triton solution for 15 minutes in order to solubilize the crystal violet. Absorbances were read at 570 nm using an ELISA plate reader (MR500, Dynatech, Guernsey, Channel Islands). Each experimental point was carried out in triplicate. The blank value represented the mean absorbance of 3 control wells (BSA). […] We then calculated the mean for the three absorbance values for each of the triplicate samples.
The results are presented in the form of a graph with the absorbance values on the ordinate and the various substrate concentrations on the abscissa. […]
A second approach was taken in order to determine the minimum quantity of active peptide and the number of adhering cells was increased in order to obtain a confluent cell network. […]

In the case of “TALRIRATYGEY (Human laminin 5) [Peptide 1]”, the “mean increase in proliferation compared to the control” value in the assay on NHK-young is ≤ 7%. Further, the “cell adhesion to immobilized peptide” value in assay [1] (HT1080, 0 to 10 micrograms immobilized peptide, 8×10^4 cells per well, 1 hour 37° C., absorbance 570 nm) is listed as “led to cell adhesion”. In addition, in assay [1] (HT1080, FIG. 3), the “immobilized peptide quantity at which adhesion occurred” value was 0.15 micrograms and the “immobilized peptide quantity at which maximum adhesion was achieved” value amounted to 0.15 micrograms.
